Experiment: excess molar enthalpy (molar enthalpy of mixing); xn = mol fraction of the nth substance listed
Conditions: 101 kPa, Liquid, Isoperibol calorimetry

CCCCCO [pentan-1-ol] + CC#N
Conditions	excess molar enthalpy [kcal/mol]
288.15 K, x1 = 0.0461	0.107
288.15 K, x1 = 0.0922	0.1965
288.15 K, x1 = 0.1379	0.2691
288.15 K, x1 = 0.1833	0.3207
288.15 K, x1 = 0.2279	0.364
288.15 K, x1 = 0.2717	0.3903
288.15 K, x1 = 0.3144	0.4302
288.15 K, x1 = 0.356	0.446
288.15 K, x1 = 0.3963	0.4555
288.15 K, x1 = 0.4494	0.4615
288.15 K, x1 = 0.4818	0.4632
288.15 K, x1 = 0.5174	0.462
288.15 K, x1 = 0.5567	0.4548
288.15 K, x1 = 0.6002	0.4412
288.15 K, x1 = 0.6486	0.4187
288.15 K, x1 = 0.7027	0.3879
288.15 K, x1 = 0.7635	0.3396
288.15 K, x1 = 0.8322	0.2734
288.15 K, x1 = 0.9103	0.162
298.15 K, x1 = 0.0464	0.121
298.15 K, x1 = 0.0927	0.2151
298.15 K, x1 = 0.1386	0.2909
298.15 K, x1 = 0.1841	0.3511
298.15 K, x1 = 0.2289	0.3958
298.15 K, x1 = 0.2728	0.4293
298.15 K, x1 = 0.3157	0.4534
298.15 K, x1 = 0.3574	0.4699
298.15 K, x1 = 0.4188	0.4794
298.15 K, x1 = 0.4833	0.4821
298.15 K, x1 = 0.5189	0.4773
298.15 K, x1 = 0.5582	0.4663
298.15 K, x1 = 0.6016	0.45
298.15 K, x1 = 0.65	0.4302
298.15 K, x1 = 0.7039	0.3977
298.15 K, x1 = 0.7645	0.3468
298.15 K, x1 = 0.833	0.2758
298.15 K, x1 = 0.9108	0.1673
313.15 K, x1 = 0.0467	0.125
313.15 K, x1 = 0.0933	0.2268
313.15 K, x1 = 0.1395	0.3064
313.15 K, x1 = 0.1852	0.3662
313.15 K, x1 = 0.2302	0.4109
313.15 K, x1 = 0.2742	0.4455
313.15 K, x1 = 0.3172	0.4708
313.15 K, x1 = 0.359	0.4897
313.15 K, x1 = 0.4229	0.5093
313.15 K, x1 = 0.4526	0.5127
313.15 K, x1 = 0.485	0.5141
313.15 K, x1 = 0.5207	0.5076
313.15 K, x1 = 0.5599	0.4957
313.15 K, x1 = 0.6033	0.4783
313.15 K, x1 = 0.6516	0.4548
313.15 K, x1 = 0.7054	0.4202
313.15 K, x1 = 0.7658	0.3728
313.15 K, x1 = 0.834	0.2966
313.15 K, x1 = 0.9114	0.185
323.15 K, x1 = 0.0469	0.127
323.15 K, x1 = 0.0937	0.233
323.15 K, x1 = 0.1401	0.3143
323.15 K, x1 = 0.1859	0.3721
323.15 K, x1 = 0.231	0.4204
323.15 K, x1 = 0.2752	0.4579
323.15 K, x1 = 0.3183	0.483
323.15 K, x1 = 0.3601	0.5098
323.15 K, x1 = 0.4006	0.5244
323.15 K, x1 = 0.4538	0.5509
323.15 K, x1 = 0.4863	0.5562
323.15 K, x1 = 0.5219	0.5504
323.15 K, x1 = 0.5611	0.5361
323.15 K, x1 = 0.6045	0.5122
323.15 K, x1 = 0.6527	0.4897
323.15 K, x1 = 0.7064	0.4529
323.15 K, x1 = 0.7667	0.4101
323.15 K, x1 = 0.8346	0.3351
323.15 K, x1 = 0.9118	0.2165

Reference: the NIST ThermoML archive (doi:10.1016/j.tca.2006.08.007)
